Data published in PMC10455244, “Alpha-Mangostin: A Potent Inhibitor of TRPV3 and Pro-Inflammatory Cytokine Secretion in Keratinocytes” (International Journal of Molecular Sciences, 2023).

Tests used:
[1] = tested on: TRPV3; details: read-out: IC50 (µM), channel inhibited TRPV3; cited from earlier work
[2] = biological target: T1, TRPA1 (Homo sapiens, UniProt O75762); details: read-out: IC50 (µM), channel inhibited TRPA1; cited from earlier work
T1 construct: host or cells: HEK 293T (transient transfection)
T1 sequence (O75762 whole entry, species assumed): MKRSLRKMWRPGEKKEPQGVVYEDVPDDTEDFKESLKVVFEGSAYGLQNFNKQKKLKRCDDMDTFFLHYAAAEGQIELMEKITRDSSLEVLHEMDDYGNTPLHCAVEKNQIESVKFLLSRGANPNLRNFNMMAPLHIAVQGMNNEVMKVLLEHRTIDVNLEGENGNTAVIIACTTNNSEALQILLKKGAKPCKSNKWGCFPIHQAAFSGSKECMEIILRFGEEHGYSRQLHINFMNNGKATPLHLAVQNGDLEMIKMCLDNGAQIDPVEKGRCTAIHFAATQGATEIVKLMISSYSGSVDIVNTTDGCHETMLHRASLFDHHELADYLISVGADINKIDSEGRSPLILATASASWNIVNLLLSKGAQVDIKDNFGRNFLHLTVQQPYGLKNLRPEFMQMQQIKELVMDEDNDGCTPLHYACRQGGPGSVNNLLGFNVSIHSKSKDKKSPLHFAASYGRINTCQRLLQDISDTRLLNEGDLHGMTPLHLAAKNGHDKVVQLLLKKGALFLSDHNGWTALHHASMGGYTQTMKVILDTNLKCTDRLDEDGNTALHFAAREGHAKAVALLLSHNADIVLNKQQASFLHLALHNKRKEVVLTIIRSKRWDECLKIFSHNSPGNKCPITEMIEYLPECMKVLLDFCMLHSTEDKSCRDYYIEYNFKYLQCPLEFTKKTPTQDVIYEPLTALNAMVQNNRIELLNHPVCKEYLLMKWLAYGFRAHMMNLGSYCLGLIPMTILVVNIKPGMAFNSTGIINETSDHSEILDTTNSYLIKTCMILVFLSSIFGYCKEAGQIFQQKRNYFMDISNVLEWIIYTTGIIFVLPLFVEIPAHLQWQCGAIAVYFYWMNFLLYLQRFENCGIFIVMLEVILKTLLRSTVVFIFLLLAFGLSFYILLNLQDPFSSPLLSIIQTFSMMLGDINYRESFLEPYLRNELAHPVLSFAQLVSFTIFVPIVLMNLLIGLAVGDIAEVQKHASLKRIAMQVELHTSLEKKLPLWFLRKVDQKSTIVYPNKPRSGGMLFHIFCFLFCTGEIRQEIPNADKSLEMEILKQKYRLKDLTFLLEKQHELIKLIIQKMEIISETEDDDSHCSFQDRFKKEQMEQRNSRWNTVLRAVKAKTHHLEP

[3] = tested on: TRPV1; details: read-out: IC50 (µM), channel inhibited TRPV1; cited from earlier work
[4] = tested on: TRPV2; design: method as in PMID 28333079; details: read-out: IC50 (µM), channel inhibited TRPV2; cited from earlier work
[5] = tested on: IL-6; experiment: ELISA, carvacrol-induced IL-6 release in NHEK; assay type: cell-based, human; details: 300 µM carvacrol alone, 24 h, not significant
Description: (§1) Constitutive activation of TRPV3 due to continuous stimulation or the presence of Olmsted mutations causes noticeable skin inflammation due to the increased secretion of pro-inflammatory cytokines from the keratinocytes. Besides, in atopic dermatitis (AD), cytokine release from keratinocytes contributes to the inflammatory environment, which drives many characteristic AD symptoms. Therefore, we determined the effect of TRPV3 activation on cytokine release instead of TRPV3 expression and evaluated whether alpha-mangostin suppressed TRPV3-mediated cytokine secretion in normal human keratinocytes. The levels of secreted cytokines (interleukin (IL)-6, IL-8, and tumor necrosis factor-alpha (TNF-α)) were measured using enzyme-linked Immunosorbent assay (ELISA) kits due to their high sensitivity and quantitation ability. The cells were induced with 300 µM carvacrol, with or without 1 µM alpha-mangostin, and 10 µM 74a.
(§2) Figure 5 Alpha-mangostin (α-MG) inhibited carvacrol-induced cytokine release in NHEK cells and rescued carvacrol-induced cell death. (A) Alpha-mangostin inhibited the carvacrol-induced release of IL-8 and IL-6 in NHEK. Cells were induced by 300 µM carvacrol with or without either 1 µM alpha-mangostin or 10 µM 74a for 24 h before the ELISA assay. (B) Alpha-mangostin reduced cell death caused by carvacrol in human keratinocytes. […]

[6] = tested on: TRPV3 (WT); experiment: in vitro; assay type: cell-based, human; details: human
[7] = tested on: TNF-α; experiment: ELISA, TNF-α release in NHEK; assay type: cell-based, human; details: 300 µM carvacrol alone, 24 h
Description: as §1, §2

[8] = tested on: IL-8; experiment: ELISA, carvacrol-induced IL-8 release in NHEK; assay type: cell-based, human; details: 300 µM carvacrol alone, 24 h
Description: as §1, §2

Row | Compound | IC50 [1] [µM] | IC50 [3] [µM] | also measured
1 | O=C(C=Cc1ccc(O)c(O)c1)OC1CC(O)(C(=O)O)CC(O)C1OC(=O)C=Cc1ccc(O)c(O)c1 (stereo not shown) [Isochlorogenic acid B] | 0.9 ± 0.3 | – | –
2 | Pulchranin C | > 200 | 183 ± 27 | IC50 [2]: > 200 µM
3 | Forsythoside B | 6.7 ± 0.7 | – | –
4 | CCC=CC1CCC2(CC3CCC4C(C(=O)OCCCCCCCCCCCCCCCC(=O)N(CCCN)CCCCN)C5(CCCC(C)O5)NC(=[N+]34)N2)O1 (stereo not shown) [Monanchomycalin B] | 3.25 ± 0.6 | 6.02 ± 0.36 | IC50 [4]: 2.84 ± 1.01 µM
5 | COc1ccc2ccc(=O)oc2c1CC=C(C)C [Coumarin osthole] | 37 ± 1.9 | – | –
6 | COc1c(O)cc(O)c2c(=O)c3cccc(O)c3n(C)c12 [Citrusinine II] | 12.4 ± 1.86 | – | –
7 | C[C@@H]1O[C@@H](O[C@@H]2[C@@H](O)[C@H](OCCc3ccc(O)c(O)c3)O[C@H](CO)[C@H]2OC(=O)/C=C/c2ccc(O)c(O)c2)[C@H](O)[C@H](O)[C@H]1O [Verbascoside] | 14.1 ± 3.3 | – | –
8 | Pulchranin A | 71.8 ± 9.4 | 27.5 ± 1.4 | IC50 [2]: 174 ± 7.4 µM
9 | Cc1ccc(C(C)C)cc1O [carvacrol, reference compound] | – | – | Effect on IL-6 secretion [5]: slight increase; viability at 24 h, 300 µM [6]: 75.6%; Effect on TNF-α levels [7]: non-significant effect; Effect on IL-8 release [8]: significantly stimulated
10 | O=C(/C=C/c1ccc(O)c(O)c1)O[C@@H]1CC(O)(C(=O)O)C[C@@H](OC(=O)/C=C/c2ccc(O)c(O)c2)C1O (stereo partly shown) [Isochlorogenic acid A] | 2.7 ± 1.3 | – | –
